Data as given in patent US11319299B2, “Substituted carboxamides as inhibitors of WDR5 protein-protein binding” (PROPELLON THERAPEUTICS INC., priority 2016, dated 2022).

target: WDR5 (Homo sapiens (Human), UniProt P61964); assay: Surface Plasmon Resonance (SPR) assay, KD and residence time; assay type: binding; details: SPR, Table 2; read-out: WDR5 binding affinity (KD)

Compound	Kd
CC(=O)Nc1cc(C(F)(F)F)c(C(=O)Nc2cc(-c3cnc(N4CCOCC4)nc3)c(F)cc2N2C[C@@H](C)N(C)[C@@H](C)C2)cn1 [Example 27, 6-acetamido-N-[4-fluoro-5-(2-morpholin-4-ylpyrimidin-5-yl)-2-[(3R,5S)-3,4,5-trimethylpiperazin-1-yl]phenyl]-4-(trifluoromethyl)pyridine-3-carboxamide]	294 nM

same assay, conditions: surface plasmon resonance (SPR) assay; read-out: WDR5 binding affinity (KD)

Compound	Kd
CC(=O)Nc1cc(C(F)(F)F)c(C(=O)Nc2cc(-c3cnc(N4CCOCC4)nc3)c(F)cc2N2C[C@@H](C)N(C)[C@@H](C)C2)cn1 [Example 27, 6-acetamido-N-[4-fluoro-5-(2-morpholin-4-ylpyrimidin-5-yl)-2-[(3R,5S)-3,4,5-trimethylpiperazin-1-yl]phenyl]-4-(trifluoromethyl)pyridine-3-carboxamide]	294 nM
C[C@@H]1CN(c2cc(C(F)(F)F)c(-c3cnc(N4CCOCC4)nc3)cc2NC(=O)c2c[nH]c(=O)cc2C(F)(F)F)C[C@H](C)N1C [Example 59, N-[5-(2-morpholin-4-ylpyrimidin-5-yl)-2-[rac-(3R,5S)-3,4,5-trimethylpiperazin-1-yl]-4-(trifluoromethyl)phenyl]-6-oxo-4-(trifluoromethyl)-1H-pyridine-3-carboxamide]	> 200 nM
COc1cc(=O)[nH]cc1C(=O)Nc1cc(-c2cnc(N3CCOCC3)nc2)c(F)cc1N1C[C@@H](C)N(C)[C@@H](C)C1 [Example 65, N-[4-fluoro-5-(2-morpholin-4-ylpyrimidin-5-yl)-2-[(3R,5S)-3,4,5-trimethylpiperazin-1-yl]phenyl]-4-methoxy-6-oxo-1H-pyridine-3-carboxamide]	57.2 nM
C[C@@H]1CN(c2cc(F)c(-c3ccnc(OCC4CC4)c3)cc2NC(=O)c2c[nH]c(=O)cc2C(F)(F)F)C[C@H](C)N1C [Example 66, N-[5-[2-(cyclopropylmethoxy)pyridin-4-yl]-4-fluoro-2-[(3R,5S)-3,4,5-trimethylpiperazin-1-yl]phenyl]-6-oxo-4-(trifluoromethyl)-1H-pyridine-3-carboxamide]	1.16 nM
C[C@@H]1CN(c2cc(F)c(-c3ccccc3CNC3CCCCC3)cc2NC(=O)c2c[nH]c(=O)cc2C(F)(F)F)C[C@H](C)N1C [Example 67, N-[5-[2-[(cyclohexylamino)methyl]phenyl]-4-fluoro-2-[(3R,5S)-3,4,5-trimethylpiperazin-1-yl]phenyl]-6-oxo-4-(trifluoromethyl)-1H-pyridine-3-carboxamide]	4.82 nM
C[C@@H]1CN(c2cc(F)c(-c3ccc(N4CCOCC4)c(Cl)c3)cc2NC(=O)c2c[nH]c(=O)cc2C(F)(F)F)C[C@H](C)N1C [Example 68, N-[5-(3-chloro-4-morpholin-4-ylphenyl)-4-fluoro-2-[(3R,5S)-3,4,5-trimethylpiperazin-1-yl]phenyl]-6-oxo-4-(trifluoromethyl)-1H-pyridine-3-carboxamide]	1.34 nM
C[C@@H]1CN(c2cc(F)c(-c3ccc4c(c3)OCCCO4)cc2NC(=O)c2c[nH]c(=O)cc2C(F)(F)F)C[C@H](C)N1C [Example 69, N-[5-(3,4-dihydro-2H-1,5-benzodioxepin-7-yl)-4-fluoro-2-[(3R,5S)-3,4,5-trimethylpiperazin-1-yl]phenyl]-6-oxo-4-(trifluoromethyl)-1H-pyridine-3-carboxamide]	0.225 nM
C[C@@H]1CN(c2cc(F)c(-c3ccc4c(c3)OCCO4)cc2NC(=O)c2c[nH]c(=O)cc2C(F)(F)F)C[C@H](C)N1C [Example 70, N-[5-(2,3-dihydro-1,4-benzodioxin-6-yl)-4-fluoro-2-[(3R,5S)-3,4,5-trimethylpiperazin-1-yl]phenyl]-6-oxo-4-(trifluoromethyl)-1H-pyridine-3-carboxamide]	0.429 nM
C[C@@H]1CN(c2cc(F)c(-c3ccc4c(c3)OCCN4C)cc2NC(=O)c2c[nH]c(=O)cc2C(F)(F)F)C[C@H](C)N1C [Example 71, N-[4-fluoro-5-(4-methyl-2,3-dihydro-1,4-benzoxazin-7-yl)-2-[(3R,5S)-3,4,5-trimethylpiperazin-1-yl]phenyl]-6-oxo-4-(trifluoromethyl)-1H-pyridine-3-carboxamide]	0.623 nM
CC(=O)Nc1ncc(-c2cc(NC(=O)c3c[nH]c(=O)cc3C(F)(F)F)c(N3C[C@@H](C)N(C)[C@@H](C)C3)cc2F)cn1 [Example 72, N-[5-(2-acetamidopyrimidin-5-yl)-4-fluoro-2-[(3R,5S)-3,4,5-trimethylpiperazin-1-yl]phenyl]-6-oxo-4-(trifluoromethyl)-1H-pyridine-3-carboxamide]	0.823 nM
C[C@@H]1CN(c2cc(F)c(C3=CCN(c4ccccc4)CC3)cc2NC(=O)c2c[nH]c(=O)cc2C(F)(F)F)C[C@H](C)N1C [Example 73, N-[4-fluoro-5-(1-phenyl-3,6-dihydro-2H-pyridin-4-yl)-2-[(3R,5S)-3,4,5-trimethylpiperazin-1-yl]phenyl]-6-oxo-4-(trifluoromethyl)-1H-pyridine-3-carboxamide]	3.63 nM
C[C@@H]1CN(c2cc(F)c(-c3cnc(N4CCOCC4)nc3)cc2NC(=O)c2ccccc2)C[C@H](C)N1C [Example 74, N-[4-fluoro-5-(2-morpholin-4-ylpyrimidin-5-yl)-2-[(3R,5S)-3,4,5-trimethylpiperazin-1-yl]phenyl]benzamide]	253 nM
COc1cc(C(=O)Nc2cc(-c3cnc(N4CCOCC4)nc3)c(F)cc2N2C[C@@H](C)N(C)[C@@H](C)C2)ccc1F [Example 75, 4-fluoro-N-[4-fluoro-5-(2-morpholin-4-ylpyrimidin-5-yl)-2-[(3R,5S)-3,4,5-trimethylpiperazin-1-yl]phenyl]-3-methoxybenzamide]	40.9 nM
C[C@@H]1CN(c2cc(F)c(-c3cnc(N4CCOCC4)nc3)cc2NC(=O)c2cc(Cl)cc(Cl)c2)C[C@H](C)N1C [Example 76, 3,5-dichloro-N-[4-fluoro-5-(2-morpholin-4-ylpyrimidin-5-yl)-2-[(3R,5S)-3,4,5-trimethylpiperazin-1-yl]phenyl]benzamide]	2.07 nM
C[C@@H]1CN(c2cc(F)c(-c3cnc(N4CCOCC4)nc3)cc2NC(=O)c2n[nH]c(=O)cc2C(F)(F)F)C[C@H](C)N1C [Example 77, N-[4-fluoro-5-(2-morpholin-4-ylpyrimidin-5-yl)-2-[(3R,5S)-3,4,5-trimethylpiperazin-1-yl]phenyl]-6-oxo-4-(trifluoromethyl)-1H-pyridazine-3-carboxamide]	4.43 nM
C[C@@H]1CN(c2cc(F)c(-c3ccnc(N4CCOCC4)c3)cc2NC(=O)c2c[nH]c(=O)cc2C(F)(F)F)C[C@H](C)N1C [Example 83, N-[4-fluoro-5-(2-morpholin-4-ylpyridin-4-yl)-2-[(3R,5S)-3,4,5-trimethylpiperazin-1-yl]phenyl]-6-oxo-4-(trifluoromethyl)-1H-pyridine-3-carboxamide]	0.391 nM
COCCOc1ccc(-c2cc(NC(=O)c3c[nH]c(=O)cc3C(F)(F)F)c(N3C[C@@H](C)N(C)[C@@H](C)C3)cc2F)cn1 [Example 84, N-[4-fluoro-5-[6-(2-methoxyethoxy)pyridin-3-yl]-2-[(3R,5S)-3,4,5-trimethylpiperazin-1-yl]phenyl]-6-oxo-4-(trifluoromethyl)-1H-pyridine-3-carboxamide]	0.338 nM

same assay, conditions: surface plasmon resonance (SPR); read-out: WDR5 binding affinity (KD)

Compound	Kd
CC1CN(c2cc(F)c(-c3cccc(N4CCOCC4)n3)cc2NC(=O)c2c[nH]c(=O)cc2C(F)F)CCN1C (stereo in doubt) [Example 721, 4-(difluoromethyl)-N-[4-fluoro-5-(6-morpholin-4-ylpyridin-2-yl)-2-[(3R)-3,4-dimethylpiperazin-1-yl]phenyl]-6-oxo-1H-pyridine-3-carboxamide]	1.62 nM
CC(C)OC(=O)N1CC=C(c2cc(NC(=O)c3c[nH]c(=O)cc3C(F)F)c(N3CCN(C)C(C)C3)cc2F)CC1 (stereo in doubt) [Example 724, propan-2-yl 4-[5-[[4-(difluoromethyl)-6-oxo-1H-pyridine-3-carbonyl]amino]-2-fluoro-4-[(3R)-3,4-dimethylpiperazin-1-yl]phenyl]-3,6-dihydro-2H-pyridine-1-carboxylate]	2.82 nM
CC(C)OC(=O)N1CCC=C(c2cc(NC(=O)c3c[nH]c(=O)cc3C(F)F)c(N3CCN(C)C(C)C3)cc2F)C1 (stereo in doubt) [Example 726, propan-2-yl 5-[5-[[4-(difluoromethyl)-6-oxo-1H-pyridine-3-carbonyl]amino]-2-fluoro-4-[(3R)-3,4-dimethylpiperazin-1-yl]phenyl]-3,6-dihydro-2H-pyridine-1-carboxylate]	2.1 nM
CC(C)OC(=O)N1CC=C(c2cc(NC(=O)c3ccc(F)cc3C(F)(F)F)c(N3CCN(C)C(C)C3)cc2F)CC1 (stereo in doubt) [Example 727, propan-2-yl 4-[2-fluoro-5-[[4-fluoro-2-(trifluoromethyl)benzoyl]amino]-4-[(3R)-3,4-dimethylpiperazin-1-yl]phenyl]-3,6-dihydro-2H-pyridine-1-carboxylate]	2.46 nM
CC(C)OC(=O)N1CCC=C(c2cc(NC(=O)c3ccc(F)cc3C(F)(F)F)c(N3CCN(C)C(C)C3)cc2F)C1 (stereo in doubt) [Example 728, propan-2-yl 5-[2-fluoro-5-[[4-fluoro-2-(trifluoromethyl)benzoyl]amino]-4-[(3R)-3,4-dimethylpiperazin-1-yl]phenyl]-3,6-dihydro-2H-pyridine-1-carboxylate]	3.55 nM
C[C@@H]1CN(c2cc(F)c(-c3cnc(N4CCOC[C@H]4C)nc3)cc2NC(=O)c2ccc(F)cc2C(F)(F)F)CCN1C (stereo in doubt) [Example 736, 4-fluoro-N-[4-fluoro-2-[(3R)-3,4-dimethylpiperazin-1-yl]-5-[2-[(3R)-3-methylmorpholin-4-yl]pyrimidin-5-yl]phenyl]-2-(trifluoromethyl)benzamide]	0.29 nM
CC1CN(c2cc(F)c(-c3ccnc(N4C[C@@H](C)O[C@@H](C)C4)n3)cc2NC(=O)c2ccc(F)cc2C(F)(F)F)CCN1C (stereo in doubt) [Example 739, 4-fluoro-N-[4-fluoro-5-[2-[(2R,6S)-2,6-dimethylmorpholin-4-yl]pyrimidin-4-yl]-2-[(3R)-3,4-dimethylpiperazin-1-yl]phenyl]-2-(trifluoromethyl)benzamide]	3 nM
CC1CN(c2cc(F)c(-c3cccc(N4CCNCC4)n3)cc2NC(=O)c2c[nH]c(=O)cc2C(F)(F)F)CCN1C (stereo in doubt) [Example 742, N-[4-fluoro-5-(6-piperazin-1-ylpyridin-2-yl)-2-[(3R)-3,4-dimethylpiperazin-1-yl]phenyl]-6-oxo-4-(trifluoromethyl)-1H-pyridine-3-carboxamide]	2.87 nM
